# Measurements: patent US12692254B2, “Benzimidazole inhibitors of PAD enzymes” (BRISTOL-MYERS SQUIBB COMPANY, priority 2018, dated 2026)
# pIC50: −log10 of the molar value.
# Target: human PAD4 (hPAD4) (Homo sapiens, UniProt Q9UM07)
# Test: RFMS human PAD4 functional assay (rapid-fire mass spectrum)
# Format: biochemical
# Settings: 5 nM hPAD4 enzyme, 250 μM BAEE, 50 μM Calcium; 30 min preincubation, 90 min reaction at 37° C.
# Method in brief: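 PAD4 (10 nM) preincubated 30 min with compound (top final 50 μM), then BAEE substrate added in pH 7.5 HEPES buffer with DTT, 50 μM calcium, TPEN; 90 min at 37° C. After TCA quench, citrulline derivatized with phenyl glyoxal (4 mM final, 30 min, 37° C) and quantified by RapidFire MS against internal standard.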
# human PAD4 (hPAD4), sequence (Q9UM07 whole entry): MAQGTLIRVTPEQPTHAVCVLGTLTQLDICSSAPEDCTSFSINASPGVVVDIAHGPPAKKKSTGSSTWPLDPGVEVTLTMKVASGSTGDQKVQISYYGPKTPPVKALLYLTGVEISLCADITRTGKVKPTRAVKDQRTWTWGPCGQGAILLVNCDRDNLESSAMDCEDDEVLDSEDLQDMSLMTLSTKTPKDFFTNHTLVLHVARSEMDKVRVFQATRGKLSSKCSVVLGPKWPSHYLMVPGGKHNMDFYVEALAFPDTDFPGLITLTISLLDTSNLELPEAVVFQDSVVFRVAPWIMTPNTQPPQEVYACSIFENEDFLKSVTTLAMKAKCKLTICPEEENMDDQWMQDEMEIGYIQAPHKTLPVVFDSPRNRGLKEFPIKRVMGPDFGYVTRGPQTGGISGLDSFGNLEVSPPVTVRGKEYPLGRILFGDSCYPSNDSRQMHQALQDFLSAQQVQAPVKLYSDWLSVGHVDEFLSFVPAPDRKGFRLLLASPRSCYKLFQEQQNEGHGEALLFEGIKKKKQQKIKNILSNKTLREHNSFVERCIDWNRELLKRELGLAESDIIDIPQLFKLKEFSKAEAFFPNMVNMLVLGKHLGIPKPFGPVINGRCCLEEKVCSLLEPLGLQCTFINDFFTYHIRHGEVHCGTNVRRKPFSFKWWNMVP
row,Compound,pIC50
1,"COc1cc(C(=O)N2C[C@H]3CC[C@@H]2[C@@H]3N)cc2nc(-c3cc4cccnc4n3CC3CC3)n(CC3CN(C(=O)C4CC4)C3)c12 [Example 123, (1R,4R,7R)-2-{1-[(1-cyclopropanecarbonylazetidin-3-yl)methyl]-2-[1-(cyclopropylmethyl)-1H-pyrrolo[2,3-b]pyridin-2-yl]-7-methoxy-1H-1,3-benzodiazole-5-carbonyl}-2-azabicyclo[2.2.1]heptan-7-amine]",7.00
2,"COc1cc(C(=O)N2C[C@H]3CC[C@@H]2[C@@H]3N)cc2nc(-c3csc4ccc(Cl)cc34)n(CC3CN(c4ccnc(C)n4)C3)c12 [Example 324, (1R,4R,7R)-2-[2-(5-chloro-1-benzothiophen-3-yl)-7-methoxy-1-{[1-(2-methylpyrimidin-4-yl)azetidin-3-yl]methyl}-1H-1,3-benzodiazole-5-carbonyl]-2-azabicyclo[2.2.1]heptan-7-amine]",5.73
3,"COc1cc(C(=O)N2C[C@H]3CC[C@@H]2[C@@H]3N)cc2nc(-c3cc4cccnc4n3CC3CC3)n(C3CCN(C(=O)c4ccnc(F)c4)CC3)c12 [Example 241, (1R,4R,7R)-2-{2-[1-(cyclopropylmethyl)-1H-pyrrolo[2,3-b]pyridin-2-yl]-1-[1-(2-fluoropyridine-4-carbonyl)piperidin-4-yl]-7-methoxy-1H-1,3-benzodiazole-5-carbonyl}-2-azabicyclo[2.2.1]heptan-7-amine]",5.59
4,"COc1cc(C(=O)N2CC3CCC2[C@@H]3N)cc2nc(-c3cc4ccccc4n3CC3CC3)n(Cc3cn(C)nc3C)c12 (stereo partly drawn) [Example 492, (7R)-2-{2-[1-(cyclopropylmethyl)-1H-indol-2-yl]-1-[(1,3-dimethyl-1H-pyrazol-4-yl)methyl]-7-methoxy-1H-1,3-benzodiazole-5-carbonyl}-2-azabicyclo[2.2.1]heptan-7-amine]",7.11
5,"COc1cc(C(=O)N2C[C@H]3CC[C@@H]2[C@@H]3N)cc2nc(-c3cc4cccnc4n3C)n(C[C@H]3CCN(c4cncc(C#N)c4)C3)c12 [Example 215, 5[(3S)-3-({5-[(1R,4R,7R)-7-amino-2-azabicyclo[2.2.1]heptane-2-carbonyl]-7-methoxy-2-{1-methyl-1H-pyrrolo[2,3-b]pyridin-2-yl}-1H-1,3-benzodiazol-1-yl}methyl)pyrrolidin-1-yl]pyridine-3-carbonitrile]",6.83
6,"COc1cc(C(=O)N2CC3CCC2[C@@H]3N)cc2nc(-c3cc4cccnc4n3CC3CC3)n(Cc3cn[nH]c3)c12 (stereo partly drawn) [Example 488, (7R)-2-{2-[1-(cyclopropylmethyl)-1H-pyrrolo[2,3-b]pyridin-2-yl]-7-methoxy-1-[(1H-pyrazol-4-yl)methyl]-1H-1,3-benzodiazole-5-carbonyl}-2-azabicyclo[2.2.1]heptan-7-amine]",7.26
7,"COc1cc(C(=O)N2C[C@H]3CC[C@@H]2[C@@H]3N)cc2nc(-c3cc4cccnc4n3CC3CC3)n(CC3CCNCC3)c12 [Example 305, (1R,4R,7R)-2-{2-[1-(cyclopropylmethyl)-1H-pyrrolo[2,3-b]pyridin-2-yl]-7-methoxy-1-[(piperidin-4-yl)methyl]-1H-1,3-benzodiazole-5-carbonyl)-2-azabicyclo[2.2.1]heptan-7-amine]",6.52
8,"COc1cc(C(=O)N2CC3CCC2[C@@H]3N)cc2nc(-c3cc4ccccc4n3C)n(CC3CN(C(=O)c4ccc(C#N)cc4)C3)c12 (stereo partly drawn) [Example 178, 4-[3-({5-[(7R)-7-amino-2-azabicyclo[2.2.1]heptane-2-carbonyl]-7-methoxy-2-(1-methyl-1H-indol-2-yl)-1H-1,3-benzodiazol-1-yl}methyl)azetidine-1-carbonyl]benzonitrile]",7.07
9,"COc1cc(C(=O)N2C[C@H](N)C[C@@H](F)C2)cc2nc(-c3cc4ccccc4n3CC3CC3)n(Cc3cn[nH]c3)c12 [Example 266, (3R,5R)-1-{2-[1-(cyclopropylmethyl)-1H-indol-2-yl]-7-methoxy-1-[(1H-pyrazol-4-yl)methyl]-1H-1,3-benzodiazole-5-carbonyl}-5-fluoropiperidin-3-amine]",7.09
10,"COc1cc(C(=O)N2C[C@H]3CC[C@@H]2[C@@H]3N)cc2nc(-c3cc4cccnc4n3CC3CC3)n(C3CN(S(=O)(=O)c4ccccc4)C3)c12 [Example 329, (1R,4R,7R)-2-{1-[1-(benzenesulfonyl)azetidin-3-yl]-2-[1-(cyclopropylmethyl)-1H-pyrrolo[2,3-b]pyridin-2-yl]-7-methoxy-1H-1,3-benzodiazole-5-carbonyl}-2-azabicyclo[2.2.1]heptan-7-amine]",6.79
11,"COc1cc(C(=O)N2C[C@H](N)C[C@@H](F)C2)cc2nc(-c3cc4cccnc4n3CC3CC3)n(Cc3cnn(-c4cnccn4)c3)c12 [Example 397, (3R,5R)-1-{2-[1-(cyclopropylmethyl)-1H-pyrrolo[2,3-b]pyridin-2-yl]-7-methoxy-1-{[1-(pyrazin-2-yl)-1H-pyrazol-4-yl]methyl}-1H-1,3-benzodiazole-5-carbonyl}-5-fluoropiperidin-3-amine]",7.28
12,"COc1cc(C(=O)N2C[C@H](N)C[C@@H](F)C2)cc2nc(-c3cc4cccnc4n3CC3CC3)n(Cc3ccnn3C)c12 [Example 518, (3R,5R)-1-{2-[1-(cyclopropylmethyl)-1H-pyrrolo[2,3-b]pyridin-2-yl]-7-methoxy-1-[(1-methyl-1H-pyrazol-5-yl)methyl]-1H-1,3-benzodiazole-5-carbonyl}-5-fluoropiperidin-3-amine]",6.22
13,"COc1cc(C(=O)N2C[C@H]3CC[C@@H]2[C@@H]3N)cc2nc(-c3cc4cccnc4n3CC3CC3)n(CC3CN(c4ncccn4)C3)c12 [Example 30, (1R,4R,7R)-2-{2-[1-(cyclopropylmethyl)-1H-pyrrolo[2,3-b]pyridin-2-yl]-7-methoxy-1-{[1-(pyrimidin-2-yl)azetidin-3-yl]methyl}-1H-1,3-benzodiazole-5-carbonyl}-2-azabicyclo[2.2.1]heptan-7-amine]",7.08
14,"COc1cc(C(=O)N2C[C@H]3CC[C@@H]2[C@@H]3N)cc2nc(-c3cc4cccnc4n3CC3CC3)n(CC3CN(C(=O)C4CCCC4)C3)c12 [Example 113, (1R,4R,7R)-2-{1-[(1-cyclopentanecarbonylazetidin-3-yl)methyl]-2-[1-(cyclopropylmethyl)-1H-pyrrolo[2,3-b]pyridin-2-yl]-7-methoxy-1H-1,3-benzodiazole-5-carbonyl]-2-azabicyclo[2.2.1]heptan-7-amine]",7.28
15,"CCc1ccccc1-c1nc2cc(C(=O)N3C[C@H]4CC[C@@H]3[C@@H]4N)cc(OC)c2n1CC1CN(c2ccnc(C#N)n2)C1 [Example 319, 4-[3-({5-[(1R,4R,7R)-7-amino-2-azabicyclo[2.2.1]heptane-2-carbonyl]-2-(2-ethylphenyl)-7-methoxy-1H-1,3-benzodiazol-1-yl}methyl)azetidin-1-yl]pyrimidine-2-carbonitrile]",5.89

# The next compounds have a higher pIC50 than those just listed; values first:
row,pIC50,Compound
1,7.31,"COc1ccc2cc(-c3nc4cc(C(=O)N5C[C@H]6CC[C@@H]5[C@@H]6N)cc(OC)c4n3CC3CN(c4ccnc(C#N)n4)C3)n(CC3CC3)c2n1 [Example 2, 4-(3-((5-((1R,4R,7R)-7-amino-2-azabicyclo[2.2.1]heptane-2-carbonyl)-2-(1-(cyclopropylmethyl)-6-methoxy-1H-pyrrolo[2,3-b]pyridin-2-yl)-7-methoxy-1H-benzo[d]imidazol-1-yl)methyl)azetidin-1-yl)pyrimidine-2-carbonitrile]"
2,7.32,"COc1cc(C(=O)N2C[C@H](N)CC[C@@H]2C)cc2nc(-c3cc4ccccc4n3CC3CC3)n(Cc3cnn(C)c3)c12 [Example 251, ((2S,5R)-5-amino-2-methylpiperidin-1-yl)(2-(1-(cyclopropylmethyl)-1H-indol-2-yl)-7-methoxy-1-((1-methyl-1H-pyrazol-4-yl)methyl)-1H-benzo[d]imidazol-5-yl)methanone]"
3,7.33,"COc1cc(C(=O)N2CC3CCC2[C@@H]3N)cc2nc(-c3cc4ccccc4n3CC3CC3)n(CC3CN(C(=O)c4ccnc(C#N)c4)C3)c12 (stereo partly drawn) [Example 451, 4-[3-({5-[(7R)-7-amino-2-azabicyclo[2.2.1]heptane-2-carbonyl]-2-[1-(cyclopropylmethyl)-1H-indol-2-yl]-7-methoxy-1H-1,3-benzodiazol-1-yl}methyl)azetidine-1-carbonyl]pyridine-2-carbonitrile]"
4,7.37,"COc1cc(C(=O)N2CC3CCC2[C@@H]3N)cc2nc(-c3cc4cccnc4n3CC3CC3)n(CC3CN(C(=O)c4ccc(F)cc4)C3)c12 (stereo partly drawn) [Example 447, (7R)-2-{2-[1-(cyclopropylmethyl)-1H-pyrrolo[2,3-b]pyridin-2-yl]-1-{[1-(4-fluorobenzoyl)azetidin-3-yl]methyl}-7-methoxy-1H-1,3-benzodiazole-5-carbonyl}-2-azabicyclo[2.2.1]heptan-7-amine]"
5,7.41,"COc1cc(C(=O)N2C[C@H]3CC[C@@H]2[C@@H]3N)cc2nc(-c3cc4ccccc4n3CC3CC3)n(CC3CN(c4ccnc(C)n4)C3)c12 [Example 66, (1R,4R,7R)-2-{2-[1-(cyclopropylmethyl)-1H-indol-2-yl]-7-methoxy-1-{[1-(2-methylpyrimidin-4-yl)azetidin-3-yl]methyl}-1H-1,3-benzodiazole-5-carbonyl}-2-azabicyclo[2.2.1]heptan-7-amine]"
6,7.44,"N[C@@H]1C2CCC1N(C(=O)c1cc(F)c3c(c1)nc(-c1cc4cccnc4n1CC1CC1)n3CC1CN(C(=O)c3ccccc3)C1)C2 (stereo partly drawn) [Example 439, (7R)-2-{1-[(1-benozylazetidin-3-yl)methyl]-2-[1-(cyclopropylmethyl)-1H-pyrrolo[2,3-b]pyridin-2-yl]-7-fluoro-1H-1,3-benzodiazol-5-carbonyl}-2-azabicyclo[2.2.1]heptan-7-amine]"
7,7.54,"COc1cc(C(=O)N2CC3CCC2[C@@H]3N)cc2nc(-c3cc4ccccc4n3CC3CC3)n(Cc3cnn(-c4cccnc4)c3)c12 (stereo partly drawn) [Example 368, (7R)-2-{2-[1-(cyclopropylmethyl)-1H-indol-2-yl]-7-methoxy-1-{[1-(pyridin-3-yl)-1H-pyrazol-4-yl]methyl}-1H-1,3-benzodiazole-5-carbonyl}-2-azabicyclo[2.2.1]heptan-7-amine]"
